Here are results for 11 molecules from ChEMBL document CHEMBL4196184, “Colocynthenins A-D, Ring-A seco-Cucurbitane Triterpenoids from the Fruits of Citrullus colocynthis” (J Nat Prod, 2018).

Structures are written as SMILES. pIC50: −log10 of the molar value. Active and inactive are the calls of the source. No cut-off for these calls is given here.

T1 sequence (P22303 whole entry): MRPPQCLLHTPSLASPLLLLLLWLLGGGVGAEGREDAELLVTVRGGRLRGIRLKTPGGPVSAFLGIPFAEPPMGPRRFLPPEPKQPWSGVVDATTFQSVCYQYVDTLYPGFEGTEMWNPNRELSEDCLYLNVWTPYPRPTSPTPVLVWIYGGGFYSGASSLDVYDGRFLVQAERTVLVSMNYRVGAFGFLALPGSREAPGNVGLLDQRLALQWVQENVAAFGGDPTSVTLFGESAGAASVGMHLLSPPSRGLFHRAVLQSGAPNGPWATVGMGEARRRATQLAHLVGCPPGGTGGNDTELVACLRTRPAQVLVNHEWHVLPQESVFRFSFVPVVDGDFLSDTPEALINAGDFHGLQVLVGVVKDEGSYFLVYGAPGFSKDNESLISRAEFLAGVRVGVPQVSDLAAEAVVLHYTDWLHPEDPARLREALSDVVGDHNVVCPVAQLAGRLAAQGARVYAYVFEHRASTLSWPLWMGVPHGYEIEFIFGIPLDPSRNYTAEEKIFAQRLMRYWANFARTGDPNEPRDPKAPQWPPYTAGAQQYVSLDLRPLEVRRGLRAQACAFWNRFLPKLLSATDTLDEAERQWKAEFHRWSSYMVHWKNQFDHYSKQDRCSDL

One test has as its target T1, Acetylcholinesterase (Homo sapiens, UniProt P22303). Kind of test: Inhibition of AChE (unknown origin) using acetylthiocholine iodide as substrate preincubated for 10 mins followed by substrate addition measured after 10 mins by Ellman's method.
For `CC(=O)OC(C)(C)/C=C/C(=O)[C@](C)(O)[C@H]1[C@H](O)C[C@@]2(C)[C@@H]3CC=C(C(C)(C)C(=O)O)/C(=C\C(=O)O)[C@]3(C)C(=O)C[C@]12C`, the pIC50 (in general, −log10 of the IC50, conventionally taken in molar units) was 5.51.
On the same count and under the same terms, the result for `CC(=O)OC(C)(C)/C=C/C(=O)[C@](C)(O)[C@H]1[C@H](O)C[C@@]2(C)[C@@H]3CC=C(C(C)(C)C(=O)O)C4=CC(=O)O[C@](O)(C[C@]12C)[C@@]43C` reads 5.59.

In a further test the target is T1, Acetylcholinesterase. In words: Inhibition of AChE (unknown origin) at 10 uM using acetylthiocholine iodide as substrate preincubated for 10 mins followed by substrate addition measured after 10 mins by Ellman's method.
Turning to `COC(=O)C(C)(C)C1=CC[C@@H]2[C@@](C)(C(=O)C[C@]3(C)[C@@H]([C@@](C)(O)C(=O)/C=C/C(C)(C)OC(C)=O)[C@H](O)C[C@@]23C)/C1=C/C(=O)O`, the inhibition entry is “inactive”.
As for `CC(=O)OC(C)(C)CCC(=O)[C@](C)(O)[C@H]1[C@H](O)C[C@@]2(C)[C@@H]3CC=C4[C@@H](C[C@H](O)C(=O)C4(C)C)[C@]3(C)C(=O)C[C@]12C`, the inhibition entry is “inactive”.
For the molecule `CC(=O)OC(C)(C)/C=C/C(=O)[C@](C)(O)[C@H]1[C@H](O)C[C@@]2(C)[C@@H]3CC=C(C(C)(C)C(=O)O)/C(=C\C#N)[C@]3(C)C(=O)C[C@]12C`, the inhibition result is “inactive”.
With `CC(=O)OC(C)(C)/C=C/C(=O)[C@](C)(O)[C@H]1[C@H](O)C[C@@]2(C)[C@@H]3[C@@H](O)C=C4[C@@H](C=C(O[C@@H]5O[C@H](CO)[C@@H](O)[C@H](O)[C@H]5O)C(=O)C4(C)C)[C@]3(C)C(=O)C[C@]12C`, the inhibition entry was “inactive”.
Still for that read-out and setting: to `CC(=O)OC(C)(C)/C=C/C(=O)[C@](C)(O)[C@H]1[C@H](O)C[C@@]2(C)[C@@H]3CC=C4[C@@H](C=C(O)C(=O)C4(C)C)[C@]3(C)C(=O)C[C@]12C` belongs “inactive”; to `CC(=O)OC(C)(C)/C=C/C(=O)[C@](C)(O)[C@H]1[C@H](O)C[C@@]2(C)[C@@H]3CC=C4[C@@H](C[C@H](O)C(=O)C4(C)C)[C@]3(C)C(=O)C[C@]12C`, “inactive”.
Same read-out and setting: the result for `CC(=O)OC(C)(C)/C=C/C(=O)[C@](C)(O)[C@H]1[C@H](O)C[C@@]2(C)[C@@H]3CC=C4[C@@H](C[C@H](O[C@@H]5O[C@H](CO)[C@@H](O)[C@H](O)[C@H]5O)C(=O)C4(C)C)[C@]3(C)C(=O)C[C@]12C` reads “inactive”.
Consider `CC(=O)OC[C@H]1O[C@@H](OC2=C[C@@H]3C(=CC[C@@H]4[C@@]3(C)C(=O)C[C@]3(C)[C@@H]([C@@](C)(O)C(=O)/C=C/C(C)(C)OC(C)=O)[C@H](O)C[C@@]43C)C(C)(C)C2=O)[C@H](O)[C@@H](O)[C@@H]1O`, for which the inhibition result is “inactive”.
Still for that read-out and setting: to `CC(=O)OC(C)(C)CCC(=O)[C@](C)(O)[C@H]1[C@H](O)C[C@@]2(C)[C@@H]3CC=C4[C@@H](C[C@H](O[C@@H]5O[C@H](CO)[C@@H](O)[C@H](O)[C@H]5O)C(=O)C4(C)C)[C@]3(C)C(=O)C[C@]12C` belongs “inactive”.
